Among the data in patent publication US8822503B2, “2-pyridone compounds” (Taisho Pharmaceutical Co., Ltd, priority 2009, dated 2014) are EC50 values, retold here.

For the test, the target named is T1, human liver GK (Homo sapiens, UniProt P35557).
T1 construct: GST (glutathione S-transferase) (N); made in house; host or cells: E. coli
T1 sequence (P35557 1-466 isoform P35557-2): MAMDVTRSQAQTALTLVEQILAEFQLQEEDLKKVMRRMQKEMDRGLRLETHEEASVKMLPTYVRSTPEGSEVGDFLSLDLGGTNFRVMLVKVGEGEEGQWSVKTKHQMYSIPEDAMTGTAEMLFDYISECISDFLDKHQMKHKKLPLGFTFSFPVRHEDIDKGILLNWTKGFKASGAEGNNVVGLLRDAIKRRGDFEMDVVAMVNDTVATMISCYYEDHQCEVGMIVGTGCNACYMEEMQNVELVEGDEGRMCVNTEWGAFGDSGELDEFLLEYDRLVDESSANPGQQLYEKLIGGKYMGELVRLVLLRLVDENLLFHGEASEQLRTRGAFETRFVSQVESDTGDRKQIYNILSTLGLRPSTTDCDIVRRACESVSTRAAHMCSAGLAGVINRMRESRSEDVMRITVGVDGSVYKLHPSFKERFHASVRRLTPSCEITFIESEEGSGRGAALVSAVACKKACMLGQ
Briefly: GK activation test. It counts as biochemical. To be noted: test compound concentration needed to activate 50% of maximum activation ability; 4 mM 14C-labeled glucose, 2 mM ATP, room temperature, 20 minutes. The procedure, abridged:
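GST-tagged human liver GK from E. coli (0.24 μg/well) with 4 mM 14C-glucose, 2 mM ATP in Hepes-KOH pH 7.1, KCl, MgCl2, DTT, 1% DMSO, 20 min room temperature. Labeled glucose 6-phosphate captured on anion resin, eluted and counted. EC50 = concentration giving half of maximal activation.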
Broadly, the EC50 is the concentration that produces a half-maximal response. The compound `O=c1[nH]c(C(CC2CCCC2)c2ccc(S(=O)(=O)C3CC3)cc2)ccc1Cl` (stereo not shown) [Example 2-25, 3-Chloro-6-{2-cyclopentyl-1-[4-(cyclopropylsulfonyl)phenyl]ethyl}pyridin-2(1H)-one] had an EC50 of 500 to 3000 nM.
As for `CCc1ccc(/C(=C/C2CCCC2)c2ccc(S(C)(=O)=O)c(Cl)c2)[nH]c1=O` [Example 1-21, 6-{(E)-1-[3-Chloro-4-(methylsulfonyl)phenyl]-2-cyclopentylethenyl}-3-ethylpyridin-2(1H)-one], the half-maximal effective concentration (EC50) fell in the range of 10 to 500 nM.
Turning to `COc1ccc(C(C[C@H]2CCC(=O)N2)c2ccc(C3CC3)c(=O)[nH]2)cc1Cl` (single isomer, unassigned) [Example 4-326], the 50% effective concentration (EC50) is 10 to 500 nM.
Regarding `CSc1ccc(C(CC2CCCC2)c2ccc(C)c(=O)[nH]2)cc1Cl` (stereo not shown) [Example 2-4, 6-{1-[3-Chloro-4-(methylsulfanyl)phenyl]-2-cyclopentylethyl}-3-methylpyridin-2(1H)-one], the EC50 was 500 to 3000 nM.
Under `O=C1CC[C@H](/C=C(/c2ccc(C3CC3)c(=O)[nH]2)c2ccc(C(F)(F)F)cc2F)N1` [Example 4-267, 3-Cyclopropyl-6-{(E)-1-[2-fluoro-4-(trifluoromethyl)phenyl]-2-[(2R)-5-oxopyrrolidin-2-yl]ethenyl}pyridin-2(1H)-one] stands 10 to 500 nM.
As for `O=C1CC[C@H](/C=C(\c2ccc(Cl)cc2)c2ccc(-c3cn[nH]c3)c(=O)[nH]2)N1` [Example 4-359, 6-{(E)-1-(4-Chlorophenyl)-2-[(2R)-5-oxopyrrolidin-2-yl]ethenyl}-3-(1H-pyrazol-4-yl)pyridin-2(1H)-one], the EC50 fell in the range of 10 to 500 nM.
As for `CCN(CC)CCCCOc1ccc(/C(=C\[C@H]2CCC(=O)N2)c2ccc(Cl)c(=O)[nH]2)cc1Cl` [Example 4-63, 3-Chloro-6-{(E)-1-{3-chloro-4-[4-(diethylamino)butoxy]phenyl}-2-[(2R)-5-oxopyrrolidin-2-yl]ethenyl}pyridin-2(1H)-one], the figure is 500 to 3000 nM; as for `Cc1cc(/C(=C\[C@H]2CCC(=O)N2)c2ccc(C3CC3)c(=O)[nH]2)ccc1SC1CC1` [Example 4-12, 3-Cyclopropyl-6-{(E)-1-[4-(cyclopropylsulfanyl)-3-methylphenyl]-2-[(2R)-5-oxopyrrolidin-2-yl]ethenyl}pyridin-2(1H)-one], 10 to 500 nM.
The compound `CCOc1ccc(C(C[C@H]2CCC(=O)N2)c2ccc(Cl)c(=O)[nH]2)cc1C(F)(F)F` (single isomer, unassigned) [Example 4-237] yielded an EC50 of 500 to 3000 nM.
The compound `CC(C)(C)c1ccc(/C(=C\[C@H]2CCC(=O)N2)c2ccc(N)c(=O)[nH]2)cc1` [Example 4-173, 3-Amino-6-{(E)-1-(4-tert-butylphenyl)-2-[(2R)-5-oxopyrrolidin-2-yl]ethenyl}pyridin-2(1H)-one] showed an EC50 of 500 to 3000 nM.
In turn, `CCOc1ccc(/C(=C\[C@H]2CCC(=O)N2)c2ccc(C3CC3)c(=O)[nH]2)cc1Cl` [Example 4-10, 6-{(E)-1-(3-Chloro-4-ethoxyphenyl)-2-[(2R)-5-oxopyrrolidin-2-yl]ethenyl}-3-cyclopropylpyridin-2(1H)-one] gave an EC50 of 10 to 500 nM.
Under `CC(C)(C)c1ccc(/C(=C\[C@H]2CCC(=O)N2)c2ccc(Cl)c(=O)[nH]2)c(O)c1` [Example 4-162, 6-{(E)-1-(4-tert-Butyl-2-hydroxyphenyl)-2-[(2R)-5-oxopyrrolidin-2-yl]ethenyl}-3-chloropyridin-2(1H)-one] stands 10 to 500 nM.
Under `O=C1CC[C@H](/C=C(\c2ccc(S(=O)(=O)C3CC3)cc2)c2ccc(C(F)(F)F)c(=O)[nH]2)C1` [Example 1-63, 6-{(E)-1-[4-(Cyclopropylsulfonyl)phenyl]-2-[(1S)-3-oxocyclopentyl]ethenyl}-3-(trifluoromethyl)pyridin-2(1H)-one] stands 500 to 3000 nM; under `O=C1CC[C@H](/C=C(\c2ccc(S(=O)(=O)Cc3ccccc3)c(Cl)c2)c2ccc(C3CC3)c(=O)[nH]2)N1` [Example 4-293, 6-{(E)-1-[4-(Benzylsulfonyl)-3-chlorophenyl]-2-[(2R)-5-oxopyrrolidin-2-yl]ethenyl}-3-cyclopropylpyridin-2(1H)-one], 10 to 500 nM; under `CC(C)(C)c1ccc(/C(=C\[C@H]2CCC(=O)N2)c2ccc(CCC3CCCCC3)c(=O)[nH]2)cc1` [Example 4-195, 6-{(E)-1-(4-tert-Butylphenyl)-2-[(2R)-5-oxopyrrolidin-2-yl]ethenyl}-3-(2-cyclohexylethyl)pyridin-2(1H)-one], 10 to 500 nM.
As for `CC(C)Oc1ccc(C(C[C@H]2CCC(=O)N2)c2ccc(Cl)c(=O)[nH]2)cc1Cl` (single isomer, unassigned) [Example 4-296], the EC50 is 500 to 3000 nM.
Under `O=C1CC[C@H](CC(c2ccc(C3CC3)cc2)c2ccc(Cl)c(=O)[nH]2)N1` (single isomer, unassigned) [Example 4-316] stands 3000 to 10000 nM; under `CCc1ccc(/C(=C\[C@H]2CCC(=O)N2)c2ccc(Cl)c(=O)[nH]2)cc1Cl` [Example 4-257, 3-Chloro-6-{(E)-1-(3-chloro-4-ethylphenyl)-2-[(2R)-5-oxopyrrolidin-2-yl]ethenyl}pyridin-2(1H)-one], 10 to 500 nM.
In the case of `Cc1ccc(/C(=C/[C@H]2CCC(=O)C2)c2ccc(S(C)(=O)=O)c(Cl)c2)[nH]c1=O` [Example 1-68, 6-{(E)-1-[3-Chloro-4-(methylsulfonyl)phenyl]-2-[(1S)-3-oxocyclopentyl]ethenyl}-3-methylpyridin-2(1H)-one], the concentration giving a half-maximal response (EC50) was in the range of 500 to 3000 nM.
`O=c1[nH]c(/C(=C/C2CCOCC2)c2ccc(S(=O)(=O)C3CC3)cc2)ccc1Cl` [Example 1-110, 3-Chloro-6-[(E)-1-[4-(cyclopropylsulfonyl)phenyl]-2-(tetrahydro-2H-pyran-4-yl)ethenyl]pyridin-2(1H)-one]: the EC50 was in the range of 500 to 3000 nM.
Under `O=C1CC[C@H](/C=C(\c2ccc(OCC(F)(F)F)c(Cl)c2)c2ccc(C3CC3)c(=O)[nH]2)N1` [Example 4-270, 6-{(E)-1-[3-Chloro-4-(2,2,2-trifluoroethoxy)phenyl]-2-[(2R)-5-oxopyrrolidin-2-yl]ethenyl}-3-cyclopropylpyridin-2(1H)-one] stands 10 to 500 nM.
As for `CC(C)(C)c1ccc(/C(=C\C(=O)N2CCCC2)c2ccc(Cl)c(=O)[nH]2)cc1` [Example 6-15, 6-[(1E)-1-(4-tert-Butylphenyl)-3-oxo-3-(pyrrolidin-1-yl)prop-1-en-1-yl]-3-chloropyridin-2(1H)-one], the figure is 3000 to 10000 nM; as for `CCN1CC(S(=O)(=O)c2ccc(/C(=C\C3CCCC3)c3ccc(C)c(=O)[nH]3)cc2)C1` [Example 1-32, 6-[(E)-2-Cyclopentyl-1-{4-[(1-ethylazetidin-3-yl)sulfonyl]phenyl}ethenyl]-3-methylpyridin-2(1H)-one], 500 to 3000 nM; as for `CCN(CC)CCCS(=O)(=O)c1ccc(C(CC2CCCC2)c2ccc(C)c(=O)[nH]2)cc1Cl` (stereo not shown) [Example 2-13, 6-[1-(3-Chloro-4-{[3-(diethylamino)propyl]sulfonyl}phenyl)-2-cyclopentylethyl]-3-methylpyridin-2(1H)-one], 500 to 3000 nM.
As for `O=C1CC[C@H](CC(c2ccc(Cl)cc2)c2ccc(C3CC3)c(=O)[nH]2)N1` (single isomer, unassigned) [Example 4-252], the EC50 lay in the range of 500 to 3000 nM.
